# Experimental data: patent US20230147795A1, “COMPOSITION AND METHODS FOR PREVENTING RADIATION INJURY AND PROMOTING TISSUE REGENERATION” (FIRSTSTRING RESEARCH, INC., priority 2017, published 2023)
# Residues, ends and D or L forms follow the SMILES beside them. *: point of attachment. Biotin = O=C1N[C@H]2[C@H](CS[C@H]2CCCCC(=O)*)N1; Ahx = NCCCCCC(=O)O
# Assays:
# [1] = Stability study of ACT peptide in drug product gel; format: physicochemical; conditions: for ACT peptide remaining, % of the label claim (initial concentration): drug product with 1.25% hydroxyethylcellulose
# Description: Derived through in vitro and in vivo studies, these stabilizers and excipients are incorporated into the drug product since they are non-irritating, non-staining, and non-immunogenic. […] The ACT peptide within the drug product containing 1.25% hydroxyethylcellulose only dropped to 98% of the label claim (i.e., initial concentration) when stored at 5° C. for three months and to 84% of the label claim when stored at 25° C. for the same duration. In one aspect of the invention, edetate disodium (EDTA) and Mannitol are incorporated within the drug product to provide stability to the ACT1 peptide. In some embodiments of the invention, the Mannitol is present in the formulation at 0.01% (w/w) to 1.6% (w/w), 0.01% (w/w) to 1.5% (w/w), 0.01% (w/w) to 1.4% (w/w), 0.01% (w/w) to 1.3% (w/w), 0.01% (w/w) to 1.2% (w/w), 0.01% (w/w) to 1.1% (w/w), 0.01% (w/w) to 1.0% (w/w), 0.01% (w/w) to 0.9% (w/w), 0.01% (w/w) to 0.8% (w/w), 0.01% (w/w) to 0.7% (w/w), 0.01% (w/w) to 0.6% (w/w), 0.01% (w/w) to 0.5% (w/w), 0.01% (w/w) to 0.4% (w/w), 0.01% (w/w) to 0.3% (w/w), 0.01% (w/w) to 0.2% (w/w), 0.01% (w/w) to 0.1% (w/w), or 0.01% (w/w) to 0.0.05% (w/w). In specific embodiments, the Mannitol is present in the formulation at about 0.05% (w/w).
# [2] = system: C57BL/6 mice, partial body irradiation; assay: GI-targeted murine partial body irradiation model, survival; format: in vivo, mouse; conditions: 10 mg/kg intraperitoneally daily from 24 hrs post exposure up to 21 days, preliminary
# Source text: In this study, C557BL/6 mice (n=40; 20 females and 20 males) were exposed to partial body irradiation by one dose exposure of […] at 50cGy/min using a 60 Co gamma source. A Farmer ionization chamber was used to provide real-time quantification of the radiation dose. Animals were irradiated in a custom designed restrainer where their left pelvic limb was extended and maintained in position to permit shielding with a cerrobend structure. This method of shielding 5% of bone marrow serves to rescue mice from hematopoietic syndromel. Initiating 24 hrs post exposure, animals were treated daily with 0.9% sodium chloride (vehicle) or 10 mg/kg ACTT 1 (ACT1 polypeptide) delivered intraperitoneally for up to 21 days. Half of the animals (subtracting those that died on days 1-7) were euthanized on day 8 to allow for histological examination of GI organs (histology results pending).
"ACT peptide remaining, % of the label claim (initial concentration) ([1]; stored at 5° C. for three months)","ACT peptide remaining, % of the label claim (initial concentration) ([1]; stored at 25° C. for three months)","Stability in Hydroxyethylcellulose, 250 HHX (1.25%) compared to Pluronic gels ([1]; gelling agent comparison)",Compound,Survival / early mortality (Kaplan Maier analysis) compared to saline [2],Survival / early mortality (Kaplan Maier analysis) compared to saline ([2]; listed as ACTI polypeptide)
98%,84%,more stable,CC[C@H](C)[C@H](NC(=O)[C@H](CCC(=O)O)NC(=O)[C@H](CC(C)C)NC(=O)[C@H](CC(=O)O)NC(=O)[C@H](CC(=O)O)NC(=O)[C@@H]1CCCN1C(=O)[C@H](CCCNC(=N)N)NC(=O)[C@@H]1CCCN1C(=O)[C@H](CCCNC(=N)N)NC(=O)[C@H](CCCCN)NC(=O)[C@H](CCCCN)NC(=O)[C@H](Cc1c[nH]c2ccccc12)NC(=O)[C@@H]1CCCN1C(=O)[C@H](CCCCN)NC(=O)[C@H](CCCNC(=N)N)NC(=O)[C@H](CCCNC(=N)N)NC(=O)[C@H](CC(N)=O)NC(=O)[C@@H]1CCCN1C(=O)[C@H](Cc1ccccc1)NC(=O)[C@H](Cc1c[nH]c2ccccc12)NC(=O)[C@@H](NC(=O)[C@H](CCCCN)NC(=O)[C@@H]1CCCN1C(=O)[C@H](CCC(N)=O)NC(=O)[C@H](CCCNC(=N)N)NC(=O)CCCCCNC(=O)CCCC[C@@H]1SC[C@@H]2NC(=O)N[C@@H]21)[C@@H](C)CC)C(=O)O [Peptide 328967] ({Biotin-Ahx}-RQPKIWFPNRRKPWKKRPRPDDLEI-OH),–,–
–,–,–,RPRPDDLEI [ACT1 polypeptide],has an early effect on animal mortality,increased survival
